Measured values reported in patent US8236761B2, “C-Met receptor regulation by angiotensin IV (AT4) receptor ligands” (Washington State University Research Foundation, priority 2006, dated 2012).
Non-standard residues stand in square brackets, D forms with d. No end group written: not given here. Nle = CCCC[C@H](N)C(=O)O

Assays:
[1] = tested on: HEK293 cell membranes (c-Met system); assay: 125I-Norleual binding assay, HEK293 cell membranes; set-up: species or system human; details: 1.5 nM HGF or 1 μM Norleual
Experimental: FIG. 3C: ^125I-Norleual was bound to HEK membranes in the presence or absence of 1.5 nM HGF (n=8) or 1 μM Norleual (n=6). Total binding is reported as percent control (n=10), (*p<0.001). Error bars indicate±SD. […] Error bars indicate SD and data points were performed in duplicate.
^125I-Norleual binding assay. HEK293 cells were grown to confluency in DMEM fortified with 10% FBS. Media was aspirated and cells were washed twice with ice-cold PBS. Cells were lysed with hypotonic buffer and homogenized as described by Zhang et al. (1999, J. Pharmacol. Exp. Ther. 289: 1075-1083; 2003 J. Cell Biochem. 88: 408-417). 450 μg of membrane protein was incubated with 1.5 nM ^125I-Norleual with or without Norleual or HGF in a total volume of 250 μl PBS, 0.1% BSA. Tubes were spun and binding was carried out for 60 minutes at RT. Bound and free ligands were separated by vacuum filtration using (Brandel Cell Harvester, Schleicher & Schull, Keene, N.H., USA) 32 glass filters. Radioactivity retained by the filters was measured using a gamma counter. […] Data analysis was preformed using Prism software (GraphicPad) per the supplier's recommendations.
Materials and methods were as described in Example 1. In separate tests of unlabeled competitors, both Norleual and HGF competed with ^125I-HGF for high affinity binding to mouse liver plasma membranes (FIGS. 2A, 2B). […]

MDCK cells = assay: HGF stimulated MDCK cell collagen I invasion (transwell chamber); assay type: cell-based, canine; details: HGF 20 ng/ml, twelve hours
Experimental: FIG. 9A: Modulation of HGF stimulated MDCK cell collagen I invasion in the Costar transwell chamber invasion assay. 50 μl of collagen I was added to the top chamber of the transwell chamber (BD Biosciences) and gelled by adjusting it to a physiological pH with a 1:1:1 mixture of 10× Modified Eagle's Medium, 1 M sodium bicarbonate, and 0.1 M sodium hydroxide for 30 minutes at 37° C. 50,000 MDCK cells in 1% FBS DMEM were seeded into the inside of the top chamber over the gelled collagen I solution and allowed to attach for two hours at 37° C. After the cells had attached to the collagen 1, the indicated concentrations of Norleual were added to the top chamber. […] The cells that had invaded the collagen and migrated to the underside of the membrane were counted in five random fields at 40× on a light microscope. The effect of treatment was determined using the one-way ANOVA with tukey's post-hoc analysis (Prism statistical analysis software). * indicates p<0.01 vs. HGF alone treatment. […] The cells that had invaded the collagen and migrated to the underside of the membrane were counted in five random fields at 40× on a light microscope. The effect of treatment was determined using the one-way ANOVA with tukey's post-hoc analysis (Prism statistical analysis software). * indicates p<0.05 vs. HGF treatment. […]

Erk1/2, Akt = assay: Erk1/2 and Akt phosphorylation in HGF-treated B16-F10 cells (scratch wound assay); assay type: cell-based, murine
Experimental: Immunoprecipitation and Western blotting. Cells were serum starved for two hours in DMEM before treatment. Cells were harvested using RIPA lysis buffer (Upstate Biotechnol. Inc., Lake Placid, N.Y.) with phosphatase inhibitor cocktails 1 and 2 (Sigma, St Louis, Mo., USA). Protein concentration was determined using the BCA assay (Pierce, Rockford, Ill., USA). Lysates were incubated with antibody overnight at 4° C. Immunoprecipitation controls received mouse non-specific Ig (Upstate). Proteins were captured with protein-A agarose (Upstate) and were washed with PBS. Proteins were resolved using SDS-PAGE electrophoresis (Criterion, BioRad, Hercules, Calif., USA), transferred to nitrocellulose, and incubated with appropriate antibodies. Proteins were visualized using the Supersignal West Pico Chemiluminescent Substrate system (Pierce). The film images were digitized and analyzed using TotalLab® software (AmershamPharmacia/GE HealthCare, Piscataway, N.J.).
In addition, molecules associated with proliferation and migration signal transduction in B16-F10 melanoma cells were investigated in the scratch wound assay. HGF alone promoted enhanced phosphorylation of the signal transduction molecules Erk1/2, an effect that was attenuated by the presence of Norleual (FIG. 11B).

Nle-Tyr-Leu-ψ-His-Pro-Phe ([Nle]YLHPF; also: reduced peptide bond psi(CH2NH2) between Leu and His) [Norleual]
Competition for 125I-Norleual specific binding to HEK293 cell membranes [1]: competed | c-Met mediated collagen I invasion by MDCK cells (MDCK cells): inhibition | c-Met mediated collagen I invasion by MDCK cells (MDCK cells; listed as Compound 2): inhibited | HGF-enhanced phosphorylation of Erk1/2 (Erk1/2, Akt): attenuated | HGF-induced Akt phosphorylation (Erk1/2, Akt): did not affect
